From PMC9011347, “Small-Molecule Inhibitors Targeting Lipolysis in Human Adipocytes” (Journal of the American Chemical Society, 2022)
Where two headings read alike, the source gives them in different places.

System: human Simpson–Golabi–Behmel syndrome (SGBS) adipocytes
Assay: Lipolysis in SGBS adipocytes (FA, glycerol release, DAG content)
Format: cell-based
Settings: for IC50: Homo sapiens, 1 h preincubation, isoproterenol 1 μM
Description: Figure 3 NG-497 inhibits lipolysis in human SGBS and primary human adipocytes. SGBS adipocytes were preincubated with NG-497 for 1 h at the indicated concentrations. Subsequently, lipolysis was stimulated with isoproterenol (1 μM) and (a) FA and (b) glycerol release was determined after 1 h using commercial kits. (c) Dose-dependent inhibition of isoproterenol-stimulated FA release from SGBS adipocytes by the HSL inhibitor 76-068 (HSLi). […] (e) DAG accumulation in SGBS adipocytes was analyzed by thin-layer chromatography (TLC) following 1 h incubation with HSLi (25 μM), NG-497 (40 μM), and a combination of both inhibitors. (f) Primary human adipocytes were prelabeled with 1 μCi [9,10-^3H] oleic acid per well for 12 h. Subsequently, basal and Forskolin (5 μM)-stimulated release of radioactivity was determined via liquid scintillation over a period of 2 h in the presence or absence of NG-497 (40 μM). FA release was calculated based on FA concentrations in conditioned media after 2 h as determined using a commercial kit. (g) Primary human adipocytes were preincubated in the presence or absence of NG-497 (40 μM) for 1 h. Subsequently, the medium was changed and FA release was monitored over a period of 3 h under the indicated conditions. Data are presented as mean ± SD. Statistical significance was determined via ANOVA followed by Bonferroni post hoc test (^#p < 0.05; ^##p < 0.01; ^###p < 0.001). TEXT PRINTED IN THE PICTURE: (a) NG-497: IC50 (μM) 1.5 ± 0.5 | (b) NG-497: IC50 (μM) 1.5 ± 0.5 | (c) HSLi: IC50 (nM) 100 ± 15 | (d) NG-497: IC50 (μM) 0.5 ± 0.1 […]
Lipidomic analysis. HepG2 cells were treated for 3 hours with 40 µM NG-497 or DMSO as control. Subsequently, cells were washed three times with PBS, harvested, and extracted with 700 µl MTBE:MeOH (10:3, v:v) for 1 hour at 4 °C on a Thermomix shaker at 1,400 rpm. 200 µl H2O were added, shaken for another 20 min, centrifuged for 10 min at 20,000 g for phase separation.
500 µl of the organic phase was transferred and evaporated under a stream of nitrogen. […] The aqueous phase was dried, the protein pellet incubated overnight with 400 µl NaOH/SDS (0.3 M/0.1%) and total protein content analyzed by the BCA protein assay (Thermo Fisher Scientific) according to the manufacturer’s instructions.
Lipid samples were separated on an Agilent 1290 Infinite II UHPLC with gradient elution over a Zorbax Extend-C18 reversed phase column (2.1 x 50 mm, 1.8µm) at 50°C. […] Samples were analyzed on an Agilent 6560 Ion Mobility Q-ToF mass spectrometer in Qtof-only mode over a scan range of 100 to 1700 m/z in negative mode and 150 to 1700 m/z in positive mode with automatic MS/MS generation. All samples were analyzed in triplicates using iterative acquisition mode to increase the number of MS/MS spectra for better annotation. […]

**Q.** How did the IC50 (1 h, read-out: IC50 of isoproterenol-stimulated FA release) turn out when `CCOc1ccc(-c2cc(OC)cc(C(=O)OC(C)C)n2)cc1` [NG-497] was run?
**A.** The IC50 was 1500 nM.

**Q.** And the IC50 (1 h, read-out: IC50 of isoproterenol-stimulated glycerol release)?
**A.** Its IC50 is 1500 nM.

**Q.** What about the “DAG accumulation under combined inhibition of HSL and ATGL” value (NG-497 40 μM combined with HSLi 25 μM, 1 h, TLC) of the same compound?
**A.** The value was “prevented DAG accumulation”.

**Q.** And the effect on lipolysis (concentrations ≥10 μM)?
**A.** Its effect on lipolysis is “almost completely abolished lipolysis”.
